Reference: the kinase profiling compilation of Christmann-Franck et al. (2016)
Values joined by “and” are separate entries in the source; they are usually repeats but may differ in a detail not shown here. Identical values can stand only once.

Assays:
Experiment in all cases: KINOMEscan competition binding
Settings in all cases: compound 10.0 µM
[1] = biological target: DAPK2 (human) (UniProt Q9UIK4)
[2] = biological target: BMPR1A (human) (UniProt P36894)
[3] = biological target: PAK7 (human) (UniProt Q9P286)
[4] = biological target: PHKG2 (human) (UniProt P15735)
[5] = biological target: MAPK7 (human) (UniProt Q13164)
[6] = biological target: PKMYT1 (human) (UniProt Q99640)
[7] = biological target: ULK2 (human) (UniProt Q8IYT8)
[8] = biological target: INSR (human) (UniProt P06213)
[9] = biological target: INSRR (human) (UniProt P14616)
[10] = biological target: ROCK2 (human) (UniProt O75116)
[11] = biological target: PLK3 (human) (UniProt Q9H4B4)
[12] = biological target: AURKA (human) (UniProt O14965)
[13] = biological target: CAMK2G (human) (UniProt Q13555)
[14] = biological target: DDR2 (human) (UniProt Q16832)
[15] = biological target: HIPK1 (human) (UniProt Q86Z02)
[16] = biological target: TLK1 (human) (UniProt Q9UKI8)
[17] = biological target: FYN (human) (UniProt P06241)
[18] = biological target: MAP3K9 (human) (UniProt P80192)
[19] = biological target: SIK2 (human) (UniProt Q9H0K1)
[20] = biological target: ACVR2B (human) (UniProt Q13705)
[21] = biological target: PRKACA (human) (UniProt P17612)
[22] = biological target: MAP2K3 (human) (UniProt P46734)
[23] = biological target: EPHA4 (human) (UniProt P54764)
[24] = biological target: ADCK3 (human) (UniProt Q8NI60)
[25] = biological target: DCLK1 (human) (UniProt O15075)
[26] = biological target: FLT3 (human) (UniProt P36888)
[27] = biological target: EPHA7 (human) (UniProt Q15375)
[28] = biological target: MAP3K7 (human) (UniProt O43318)
[29] = biological target: STK11 (human) (UniProt Q15831)
[30] = biological target: CLK3 (human) (UniProt P49761)
[31] = biological target: MAPK4 (human) (UniProt P31152)
[32] = biological target: TGFBR2 (human) (UniProt P37173)
[33] = biological target: CSF1R (human) (UniProt P07333)
[34] = biological target: CAMK2A (human) (UniProt Q9UQM7)
[35] = biological target: BRSK1 (human) (UniProt Q8TDC3)
[36] = biological target: FRK (human) (UniProt P42685)
[37] = biological target: MAPK14 (human) (UniProt Q16539)
[38] = biological target: CSNK1A1L (human) (UniProt Q8N752)
[39] = biological target: LIMK2 (human) (UniProt P53671)
[40] = biological target: RPS6KA5 KD2 (human) (UniProt O75582)

Sequence of DAPK2 (human) (Q9UIK4 whole entry, looked up): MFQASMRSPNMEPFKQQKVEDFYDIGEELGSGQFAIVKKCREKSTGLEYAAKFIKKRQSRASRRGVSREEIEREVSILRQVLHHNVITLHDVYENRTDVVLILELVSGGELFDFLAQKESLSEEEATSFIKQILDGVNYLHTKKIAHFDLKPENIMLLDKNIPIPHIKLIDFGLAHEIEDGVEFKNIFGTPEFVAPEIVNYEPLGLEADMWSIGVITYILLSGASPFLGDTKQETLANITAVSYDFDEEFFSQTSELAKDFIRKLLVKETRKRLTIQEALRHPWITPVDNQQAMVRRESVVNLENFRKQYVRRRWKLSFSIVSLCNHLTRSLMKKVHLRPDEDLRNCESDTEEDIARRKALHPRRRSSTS
Sequence of CSF1R (human) (P07333 whole entry, looked up): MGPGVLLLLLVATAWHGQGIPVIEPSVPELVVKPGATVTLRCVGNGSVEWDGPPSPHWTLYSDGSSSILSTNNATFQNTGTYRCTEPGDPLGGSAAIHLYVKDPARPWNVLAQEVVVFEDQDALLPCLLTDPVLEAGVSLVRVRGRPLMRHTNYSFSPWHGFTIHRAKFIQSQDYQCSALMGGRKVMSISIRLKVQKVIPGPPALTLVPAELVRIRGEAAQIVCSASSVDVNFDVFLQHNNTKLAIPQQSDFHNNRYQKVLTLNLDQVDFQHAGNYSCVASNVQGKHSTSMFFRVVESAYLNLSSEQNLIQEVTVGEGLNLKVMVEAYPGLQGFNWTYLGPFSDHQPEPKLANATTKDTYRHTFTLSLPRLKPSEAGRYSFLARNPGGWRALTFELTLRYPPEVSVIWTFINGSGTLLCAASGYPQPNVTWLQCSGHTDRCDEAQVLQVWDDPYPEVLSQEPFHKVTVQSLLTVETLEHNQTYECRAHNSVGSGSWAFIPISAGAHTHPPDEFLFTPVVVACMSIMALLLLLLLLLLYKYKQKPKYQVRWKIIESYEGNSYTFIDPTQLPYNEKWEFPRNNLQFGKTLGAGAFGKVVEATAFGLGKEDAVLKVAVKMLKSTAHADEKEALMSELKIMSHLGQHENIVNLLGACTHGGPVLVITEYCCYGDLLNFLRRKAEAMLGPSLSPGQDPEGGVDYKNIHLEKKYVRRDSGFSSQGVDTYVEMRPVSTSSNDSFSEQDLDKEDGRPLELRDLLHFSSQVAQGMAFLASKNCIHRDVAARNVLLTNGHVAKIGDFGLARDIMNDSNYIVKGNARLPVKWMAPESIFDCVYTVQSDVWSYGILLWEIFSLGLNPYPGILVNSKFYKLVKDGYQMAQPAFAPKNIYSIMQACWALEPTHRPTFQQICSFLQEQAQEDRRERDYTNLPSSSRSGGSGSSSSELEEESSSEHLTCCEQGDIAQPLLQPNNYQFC
Sequence of ULK2 (human) (Q8IYT8 whole entry, looked up): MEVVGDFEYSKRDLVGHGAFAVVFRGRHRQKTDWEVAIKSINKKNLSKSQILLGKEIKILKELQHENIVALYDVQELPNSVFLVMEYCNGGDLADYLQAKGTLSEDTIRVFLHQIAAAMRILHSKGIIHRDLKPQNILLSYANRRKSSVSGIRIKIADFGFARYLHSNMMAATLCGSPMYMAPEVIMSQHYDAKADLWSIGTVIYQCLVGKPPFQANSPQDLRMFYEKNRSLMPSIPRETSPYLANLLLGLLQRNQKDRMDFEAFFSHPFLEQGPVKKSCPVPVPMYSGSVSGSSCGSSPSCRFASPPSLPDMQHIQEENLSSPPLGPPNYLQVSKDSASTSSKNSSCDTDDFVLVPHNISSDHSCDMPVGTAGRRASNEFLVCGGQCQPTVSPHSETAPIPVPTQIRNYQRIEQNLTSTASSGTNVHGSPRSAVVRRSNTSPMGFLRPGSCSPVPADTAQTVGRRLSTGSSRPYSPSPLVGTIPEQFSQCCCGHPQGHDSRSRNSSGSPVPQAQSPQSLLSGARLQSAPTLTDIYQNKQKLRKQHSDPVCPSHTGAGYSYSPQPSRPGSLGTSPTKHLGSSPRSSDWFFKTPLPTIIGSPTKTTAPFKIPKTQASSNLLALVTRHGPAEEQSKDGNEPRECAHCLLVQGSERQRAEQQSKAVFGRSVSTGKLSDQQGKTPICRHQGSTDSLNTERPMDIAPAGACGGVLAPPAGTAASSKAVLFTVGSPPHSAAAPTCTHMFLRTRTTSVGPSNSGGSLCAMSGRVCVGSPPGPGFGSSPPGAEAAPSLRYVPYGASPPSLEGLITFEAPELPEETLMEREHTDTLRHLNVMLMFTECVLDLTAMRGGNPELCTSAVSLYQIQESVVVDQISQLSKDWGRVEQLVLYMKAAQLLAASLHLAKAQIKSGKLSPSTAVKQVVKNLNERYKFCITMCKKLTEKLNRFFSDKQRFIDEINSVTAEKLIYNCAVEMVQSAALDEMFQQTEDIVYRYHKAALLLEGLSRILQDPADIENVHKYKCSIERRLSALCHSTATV
Sequence of TLK1 (human) (Q9UKI8 whole entry, looked up): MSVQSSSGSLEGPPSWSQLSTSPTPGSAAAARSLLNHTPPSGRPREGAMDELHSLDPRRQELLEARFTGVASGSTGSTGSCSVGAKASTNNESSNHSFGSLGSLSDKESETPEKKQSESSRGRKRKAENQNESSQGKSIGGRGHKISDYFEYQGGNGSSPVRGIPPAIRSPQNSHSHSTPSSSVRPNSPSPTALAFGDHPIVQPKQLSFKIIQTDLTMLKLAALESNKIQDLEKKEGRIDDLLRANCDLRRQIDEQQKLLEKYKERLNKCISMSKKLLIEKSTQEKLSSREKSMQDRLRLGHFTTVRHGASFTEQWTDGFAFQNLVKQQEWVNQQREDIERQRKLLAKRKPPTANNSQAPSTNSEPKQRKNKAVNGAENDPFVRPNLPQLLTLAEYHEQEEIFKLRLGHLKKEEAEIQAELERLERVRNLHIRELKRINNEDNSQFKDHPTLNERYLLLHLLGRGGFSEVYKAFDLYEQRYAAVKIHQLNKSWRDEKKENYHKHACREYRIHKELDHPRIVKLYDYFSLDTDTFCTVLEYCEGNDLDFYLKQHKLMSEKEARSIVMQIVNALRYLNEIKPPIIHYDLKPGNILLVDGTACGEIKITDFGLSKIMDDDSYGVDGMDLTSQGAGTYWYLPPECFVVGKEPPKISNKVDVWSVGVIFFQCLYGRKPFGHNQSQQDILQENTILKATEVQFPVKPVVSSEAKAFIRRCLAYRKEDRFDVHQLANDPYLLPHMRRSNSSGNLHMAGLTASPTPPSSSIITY
Sequence of FRK (human) (P42685 whole entry, looked up): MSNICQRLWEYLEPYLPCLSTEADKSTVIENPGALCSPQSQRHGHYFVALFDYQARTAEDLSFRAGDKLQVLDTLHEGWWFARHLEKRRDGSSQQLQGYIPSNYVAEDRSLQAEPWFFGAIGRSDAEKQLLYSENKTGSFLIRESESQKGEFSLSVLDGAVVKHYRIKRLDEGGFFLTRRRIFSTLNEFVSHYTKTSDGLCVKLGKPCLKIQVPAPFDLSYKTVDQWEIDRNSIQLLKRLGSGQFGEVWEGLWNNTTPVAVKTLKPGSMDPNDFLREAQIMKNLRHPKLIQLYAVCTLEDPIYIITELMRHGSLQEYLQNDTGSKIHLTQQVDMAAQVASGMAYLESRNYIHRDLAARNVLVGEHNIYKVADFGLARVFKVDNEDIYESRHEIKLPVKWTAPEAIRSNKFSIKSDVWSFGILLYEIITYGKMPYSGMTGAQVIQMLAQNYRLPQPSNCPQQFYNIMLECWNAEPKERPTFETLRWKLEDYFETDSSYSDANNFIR
Sequence of FYN (human) (P06241 whole entry, looked up): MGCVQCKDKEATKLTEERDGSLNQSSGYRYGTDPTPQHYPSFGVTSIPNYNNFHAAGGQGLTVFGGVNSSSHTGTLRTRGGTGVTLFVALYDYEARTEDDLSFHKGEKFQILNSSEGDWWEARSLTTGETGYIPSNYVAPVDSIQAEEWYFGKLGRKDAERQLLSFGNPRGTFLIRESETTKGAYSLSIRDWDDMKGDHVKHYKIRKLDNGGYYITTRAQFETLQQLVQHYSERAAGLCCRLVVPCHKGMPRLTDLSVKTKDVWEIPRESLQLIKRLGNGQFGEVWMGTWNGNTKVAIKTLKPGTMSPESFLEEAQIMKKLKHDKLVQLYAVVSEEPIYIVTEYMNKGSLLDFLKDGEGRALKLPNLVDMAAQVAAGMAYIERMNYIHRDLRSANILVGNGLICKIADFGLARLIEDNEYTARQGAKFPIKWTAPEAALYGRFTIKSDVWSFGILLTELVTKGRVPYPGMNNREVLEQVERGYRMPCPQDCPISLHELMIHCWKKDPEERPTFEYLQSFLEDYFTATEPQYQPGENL
Sequence of CLK3 (human) (P49761 whole entry, looked up): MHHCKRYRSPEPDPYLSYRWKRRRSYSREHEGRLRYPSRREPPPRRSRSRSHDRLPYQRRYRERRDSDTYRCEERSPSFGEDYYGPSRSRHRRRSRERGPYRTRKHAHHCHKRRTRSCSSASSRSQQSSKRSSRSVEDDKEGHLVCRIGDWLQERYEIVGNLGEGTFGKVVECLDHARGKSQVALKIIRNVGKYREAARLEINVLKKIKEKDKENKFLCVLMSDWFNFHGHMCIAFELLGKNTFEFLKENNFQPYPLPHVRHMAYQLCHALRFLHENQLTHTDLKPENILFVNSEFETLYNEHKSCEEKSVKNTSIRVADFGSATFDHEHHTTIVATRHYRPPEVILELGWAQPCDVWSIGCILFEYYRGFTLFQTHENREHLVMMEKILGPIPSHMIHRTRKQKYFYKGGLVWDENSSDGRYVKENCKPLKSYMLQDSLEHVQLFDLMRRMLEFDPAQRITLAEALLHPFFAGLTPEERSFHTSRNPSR
Sequence of MAPK14 (human) (Q16539 whole entry, looked up): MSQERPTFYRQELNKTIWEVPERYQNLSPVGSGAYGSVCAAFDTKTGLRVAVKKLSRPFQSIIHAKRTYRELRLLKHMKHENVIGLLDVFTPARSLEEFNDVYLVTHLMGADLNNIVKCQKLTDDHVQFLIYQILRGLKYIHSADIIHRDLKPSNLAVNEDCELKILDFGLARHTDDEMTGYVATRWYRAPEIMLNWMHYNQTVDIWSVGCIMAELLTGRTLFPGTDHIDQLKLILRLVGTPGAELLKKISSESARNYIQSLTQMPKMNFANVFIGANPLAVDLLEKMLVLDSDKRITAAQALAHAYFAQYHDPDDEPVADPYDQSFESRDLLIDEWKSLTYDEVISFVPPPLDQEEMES

Row | kinase still bound, per cent of control [1] [%] | kinase still bound, per cent of control [2] [%] | kinase still bound, per cent of control [3] [%] | kinase still bound, per cent of control [4] [%] | kinase still bound, per cent of control [5] [%] | kinase still bound, per cent of control [6] [%] | kinase still bound, per cent of control [7] [%] | kinase still bound, per cent of control [8] [%] | kinase still bound, per cent of control [9] [%] | kinase still bound, per cent of control [10] [%] | kinase still bound, per cent of control [11] [%] | kinase still bound, per cent of control [12] [%] | kinase still bound, per cent of control [13] [%] | kinase still bound, per cent of control [14] [%] | kinase still bound, per cent of control [15] [%] | kinase still bound, per cent of control [16] [%] | kinase still bound, per cent of control [17] [%] | kinase still bound, per cent of control [18] [%] | kinase still bound, per cent of control [19] [%] | kinase still bound, per cent of control [20] [%] | Structure (SMILES) | other results
1 | 28 | 100 | 100 | 3.5 | 4 | 100 | 2 | 17 | 13 | 27 | 100 | 28 | 100 | 100 | 100 | 100 | 100 | 35 | 20 | 100 | C=CC(=O)Nc1cccc(Oc2nc(Nc3ccc(N4CCN(C)CC4)cc3OC)ncc2Cl)c1 | kinase still bound, per cent of control [21]: 100%; kinase still bound, per cent of control [22]: 100%; kinase still bound, per cent of control [23]: 100%; kinase still bound, per cent of control [24]: 100%; kinase still bound, per cent of control [25]: 1%; kinase still bound, per cent of control [26]: 4.6%; kinase still bound, per cent of control [27]: 100%; kinase still bound, per cent of control [28]: 100%; kinase still bound, per cent of control [29]: 100%; kinase still bound, per cent of control [30]: 100%; kinase still bound, per cent of control [31]: 100%; kinase still bound, per cent of control [32]: 100%; kinase still bound, per cent of control [33]: 14%; kinase still bound, per cent of control [34]: 100%; kinase still bound, per cent of control [35]: 100%; kinase still bound, per cent of control [36]: 28%; kinase still bound, per cent of control [37]: 100%; kinase still bound, per cent of control [38]: 100%; kinase still bound, per cent of control [39]: 100%; kinase still bound, per cent of control [40]: 100%
2 | 100 | 100 | 100 | 100 | 100 | 100 | 100 | 100 | 100 | 100 | 100 | 100 | 100 | 100 | 100 | 100 | 100 | 100 | 100 | 100 | COc1cc(C(=O)NC2CCN(C)CC2)ccc1Nc1ncc2c(n1)N(C1CCCC1)CCC(=O)N2C(C)C | kinase still bound, per cent of control [21]: 100%; kinase still bound, per cent of control [22]: 100%; kinase still bound, per cent of control [23]: 100%; kinase still bound, per cent of control [24]: 100%; kinase still bound, per cent of control [25]: 100%; kinase still bound, per cent of control [26]: 100%; kinase still bound, per cent of control [27]: 100%; kinase still bound, per cent of control [28]: 100%; kinase still bound, per cent of control [29]: 100%; kinase still bound, per cent of control [30]: 100%; kinase still bound, per cent of control [31]: 100%; kinase still bound, per cent of control [32]: 100%; kinase still bound, per cent of control [33]: 100%; kinase still bound, per cent of control [34]: 100%; kinase still bound, per cent of control [35]: 100%; kinase still bound, per cent of control [36]: 100%; kinase still bound, per cent of control [37]: 100%; kinase still bound, per cent of control [38]: 100%; kinase still bound, per cent of control [39]: 100%; kinase still bound, per cent of control [40]: 100%

Row | Structure (SMILES) | kinase still bound, per cent of control [1] [%] | kinase still bound, per cent of control [2] [%] | kinase still bound, per cent of control [3] [%] | kinase still bound, per cent of control [4] [%] | kinase still bound, per cent of control [5] [%] | kinase still bound, per cent of control [6] [%] | kinase still bound, per cent of control [7] [%] | kinase still bound, per cent of control [8] [%] | kinase still bound, per cent of control [9] [%] | kinase still bound, per cent of control [10] [%] | kinase still bound, per cent of control [11] [%] | kinase still bound, per cent of control [12] [%] | kinase still bound, per cent of control [13] [%] | kinase still bound, per cent of control [14] [%] | kinase still bound, per cent of control [15] [%] | kinase still bound, per cent of control [16] [%] | kinase still bound, per cent of control [17] [%] | kinase still bound, per cent of control [18] [%] | kinase still bound, per cent of control [19] [%] | kinase still bound, per cent of control [20] [%] | other results
3 | O=C(NOC[C@H](O)CO)c1ccc(F)c(F)c1Nc1ccc(I)cc1F | 100 | 100 | 100 | 93 | 88 | 80 | 97 | 92 | 81 | 100 | 100 | 100 | 100 | 100 | 91 | 89 | 64 | 95 | 92 | 66 | kinase still bound, per cent of control [21]: 72%; kinase still bound, per cent of control [22]: 89%; kinase still bound, per cent of control [23]: 100%; kinase still bound, per cent of control [24]: 86%; kinase still bound, per cent of control [25]: 100%; kinase still bound, per cent of control [26]: 82% and 80%; kinase still bound, per cent of control [27]: 94%; kinase still bound, per cent of control [28]: 75%; kinase still bound, per cent of control [29]: 83%; kinase still bound, per cent of control [30]: 100%; kinase still bound, per cent of control [31]: 77%; kinase still bound, per cent of control [32]: 100%; kinase still bound, per cent of control [33]: 100% and 80%; kinase still bound, per cent of control [34]: 100%; kinase still bound, per cent of control [35]: 100%; kinase still bound, per cent of control [36]: 60%; kinase still bound, per cent of control [37]: 100%; kinase still bound, per cent of control [38]: 80%; kinase still bound, per cent of control [39]: 100%; kinase still bound, per cent of control [40]: 100%
